In US9359398B2, “Compounds for immunoproteasome inhibition” (Onyx Therapeutics, Inc., priority 2010, dated 2016):

Columns and labels:
immunoproteasome (L7) = immunoproteasome (L7) (Homo sapiens, UniProt P28062); test: Enzyme kinetic assay of chymotrypsin-like (CT-L) activity, isolated 20S immunoproteasome prep; format: biochemical; conditions: for EC50 ratio (B5/L7): 20S ratio: EC50 constitutive / EC50 immunoproteasome, greater than one = prefers immunoproteasome
Source text: (§1) This can be done using enzyme kinetic assays such as those disclosed in U.S. application Ser. No. 09/569,748, Example 2 and Stein et al., Biochem. […] A ratio of less than one denotes the molecule inhibits the CT-L activity of the constitutive proteasome better than that of the immunoproteasome. Ratios greater than one signifies the molecule inhibits chymotrypsin-like activity of the immunoproteasome better than that of the constitutive proteasome.

[1] = molecular target: constitutive proteasome (B5) (Homo sapiens, UniProt P28074); test: Enzyme kinetic assay of chymotrypsin-like (CT-L) activity, isolated 20S constitutive proteasome prep; format: biochemical; conditions: isolated 20S proteasome prep with greater than 90% constitutive proteasome subunits
Source text: as §1

| EC50 ratio (B5/L7) (immunoproteasome (L7)) | EC50 for immunoproteasome (L7) (immunoproteasome (L7); CT-L activity, isolated 20S proteasome prep with greater than 90% immunoproteasome subunits) | EC50 for constitutive proteasome (B5) [1] | SMILES |
| --- | --- | --- | --- |
| 18.34 |  |  | C[C@H](NC(=O)CN1CCOCC1)C(=O)N[C@@H](Cc1ccc(O)cc1)C(=O)N[C@@H](Cc1ccccc1)B(O)O |
| >>1.0 |  | Inactive | C[C@@H](NC(=O)CN1CCOCC1)C(=O)N[C@@H](Cc1c[nH]c2ccccc12)C(=O)N[C@@H](Cc1ccccc1)C(=O)[C@@]1(C)CO1 |
| 6.49 |  |  | C[C@@H](NC(=O)CN1CCOCC1)C(=O)N[C@@H](Cc1c[nH]c2ccccc12)C(=O)N[C@@H](Cc1ccccc1)B(O)O |

More lines, now with the values behind:

| SMILES | EC50 ratio (B5/L7) (immunoproteasome (L7)) | EC50 for immunoproteasome (L7) (immunoproteasome (L7); CT-L activity, isolated 20S proteasome prep with greater than 90% immunoproteasome subunits) | EC50 for constitutive proteasome (B5) [1] |
| --- | --- | --- | --- |
| CC(C)C[C@H](NC(=O)[C@H](Cc1ccccc1)NC(=O)[C@H](CC(C)C)NC(=O)[C@H](CCc1ccccc1)NC(=O)CN1CCOCC1)B(O)O | 1.10 |  |  |
| CC(C)C[C@H](NC(=O)[C@H](Cc1ccccc1)NC(=O)c1cnccn1)C(=O)[C@@]1(C)CO1 |  | Inactive | Inactive |
| C[C@H](NC(=O)CN1CCOCC1)C(=O)N[C@@H](Cc1ccc(O)cc1)C(=O)N[C@@H](Cc1ccccc1)C(=O)[C@@]1(C)CO1 | 17.04 |  |  |
